From PubChem BioAssay (NCI)
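Growth conditions: 96-well plates. Treatment: test compound, 48 hours, 5 concentrations. Analysis: linear interpolation between bracketing concentrations; unreached endpoints set to highest concentration. The concentration for 50% growth inhibition is given as GI50. At the TGI there is no net growth.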

Key:
Assay in all cases: NCI tumour cell line growth inhibition, 48 h
CAKI-1 renal = system: CAKI-1 renal
UACC-62 melanoma = system: UACC-62 melanoma
HOP-62 NSCLC = system: HOP-62 NSCLC
HCT-15 colon = system: HCT-15 colon
MDA-MB-468 breast = system: MDA-MB-468 breast
HS 578T breast = system: HS 578T breast
SN12C renal = system: SN12C renal
HL-60(TB) leukemia = system: HL-60(TB) leukemia
KM12 colon = system: KM12 colon
SNB-19 CNS = system: SNB-19 CNS
NCI-H226 lung = system: NCI-H226 lung
SF-295 CNS = system: SF-295 CNS
OVCAR-5 ovarian = system: OVCAR-5 ovarian
SK-OV-3 ovarian = system: SK-OV-3 ovarian
RXF 393 renal = system: RXF 393 renal
MALME-3M melanoma = system: MALME-3M melanoma
A549 NSCLC = system: A549 NSCLC
MDA-MB-435 = system: MDA-MB-435
UO-31 renal = system: UO-31 renal
NCI/ADR-RES ovarian = system: NCI/ADR-RES ovarian
K-562 leukemia = system: K-562 leukemia
HCC-2998 colon = system: HCC-2998 colon
MCF7 breast = system: MCF7 breast
RPMI-8226 leukemia = system: RPMI-8226 leukemia
COLO 205 colon = system: COLO 205 colon
SF-268 CNS = system: SF-268 CNS
OVCAR-8 ovarian = system: OVCAR-8 ovarian
NCI-H23 lung = system: NCI-H23 lung
HT29 colon = system: HT29 colon
T-47D breast = system: T-47D breast
BT-549 breast = system: BT-549 breast
SK-MEL-28 melanoma = system: SK-MEL-28 melanoma
M14 melanoma = system: M14 melanoma
UACC-257 melanoma = system: UACC-257 melanoma
SNB-75 CNS = system: SNB-75 CNS
A498 renal = system: A498 renal
LOX IMVI melanoma = system: LOX IMVI melanoma
SW-620 colon = system: SW-620 colon
IGROV1 ovarian = system: IGROV1 ovarian
HCT-116 colon = system: HCT-116 colon
786-0 renal = system: 786-0 renal
SK-MEL-2 melanoma = system: SK-MEL-2 melanoma
SF-539 CNS = system: SF-539 CNS
ACHN renal = system: ACHN renal
OVCAR-4 ovarian = system: OVCAR-4 ovarian
MDA-MB-231 breast = system: MDA-MB-231 breast
PC-3 prostate = system: PC-3 prostate
MOLT-4 leukemia = system: MOLT-4 leukemia
OVCAR-3 ovarian = system: OVCAR-3 ovarian
DU-145 prostate = system: DU-145 prostate
SK-MEL-5 melanoma = system: SK-MEL-5 melanoma
TK-10 renal = system: TK-10 renal
CCRF-CEM leukemia = system: CCRF-CEM leukemia
HOP-92 NSCLC = system: HOP-92 NSCLC
NCI-H460 lung = system: NCI-H460 lung
U251 CNS = system: U251 CNS
EKVX NSCLC = system: EKVX NSCLC
NCI-H522 lung = system: NCI-H522 lung

SMILES: COc1ccc(-c2nc3cc(C)ccc3n2CC(=O)N=Nc2c(O)[nH]c3ccccc23)cc1
- GI50 (CAKI-1 renal): 2.86 µM
- TGI (CAKI-1 renal): 11.6 µM
- GI50 (UACC-62 melanoma): 2.14 µM
- TGI (UACC-62 melanoma): 6.96 µM
- GI50 (HOP-62 NSCLC): 3.7 µM
- TGI (HOP-62 NSCLC): 18.2 µM
- GI50 (HCT-15 colon): 3.66 µM
- TGI (HCT-15 colon): 14.5 µM
- GI50 (MDA-MB-468 breast): 2.26 µM
- TGI (MDA-MB-468 breast): 5.87 µM
- GI50 (HS 578T breast): 2.27 µM
- TGI (HS 578T breast): 7.12 µM
- GI50 (SN12C renal): 1.71 µM
- TGI (SN12C renal): 3.83 µM
- GI50 (HL-60(TB) leukemia): 5.5 µM
- TGI (HL-60(TB) leukemia): 29.2 µM
- GI50 (KM12 colon): 3.96 µM
- TGI (KM12 colon): 16 µM
- GI50 (SNB-19 CNS): 4.11 µM
- TGI (SNB-19 CNS): 15.3 µM
- GI50 (NCI-H226 lung): 1.88 µM
- TGI (NCI-H226 lung): 4.13 µM
- GI50 (SF-295 CNS): 5.4 µM
- TGI (SF-295 CNS): 18.8 µM
- GI50 (OVCAR-5 ovarian): 2.4 µM
- TGI (OVCAR-5 ovarian): 8.1 µM
- GI50 (SK-OV-3 ovarian): 2.32 µM
- TGI (SK-OV-3 ovarian): 6.06 µM
- GI50 (RXF 393 renal): 1.55 µM
- TGI (RXF 393 renal): 3.71 µM
- GI50 (MALME-3M melanoma): 2.17 µM
- TGI (MALME-3M melanoma): 4.42 µM
- GI50 (A549 NSCLC): 1.88 µM
- TGI (A549 NSCLC): 4.02 µM
- GI50 (MDA-MB-435): 2.47 µM
- TGI (MDA-MB-435): 6.24 µM
- GI50 (UO-31 renal): 12.2 µM
- TGI (UO-31 renal): 24.8 µM
- GI50 (NCI/ADR-RES ovarian): 2.58 µM
- TGI (NCI/ADR-RES ovarian): 6.66 µM
- GI50 (K-562 leukemia): 3.23 µM
- TGI (K-562 leukemia): 43.5 µM
- GI50 (HCC-2998 colon): 13.1 µM
- TGI (HCC-2998 colon): 26.1 µM
- GI50 (MCF7 breast): 2.17 µM
- TGI (MCF7 breast): 5.7 µM
- GI50 (RPMI-8226 leukemia): 6.69 µM
- TGI (RPMI-8226 leukemia): 28.8 µM
- GI50 (COLO 205 colon): 3.73 µM
- TGI (COLO 205 colon): 14 µM
- GI50 (SF-268 CNS): 2.52 µM
- TGI (SF-268 CNS): 9.61 µM
- GI50 (OVCAR-8 ovarian): 2.19 µM
- TGI (OVCAR-8 ovarian): 4.87 µM
- GI50 (NCI-H23 lung): 4.15 µM
- TGI (NCI-H23 lung): 15.8 µM
- GI50 (HT29 colon): 1.82 µM
- TGI (HT29 colon): 3.52 µM
- GI50 (T-47D breast): 3.15 µM
- TGI (T-47D breast): 17.8 µM
- GI50 (BT-549 breast): 1.77 µM
- TGI (BT-549 breast): 4.98 µM
- GI50 (SK-MEL-28 melanoma): 1.71 µM
- TGI (SK-MEL-28 melanoma): 3.26 µM
- GI50 (M14 melanoma): 2.31 µM
- TGI (M14 melanoma): 5.4 µM
- GI50 (UACC-257 melanoma): 2.38 µM
- TGI (UACC-257 melanoma): 6.76 µM
- GI50 (SNB-75 CNS): 1.55 µM
- TGI (SNB-75 CNS): 4.33 µM
- GI50 (A498 renal): 11.8 µM
- TGI (A498 renal): 25.7 µM
- GI50 (LOX IMVI melanoma): 6.32 µM
- TGI (LOX IMVI melanoma): 20.8 µM
- GI50 (SW-620 colon): 3.03 µM
- TGI (SW-620 colon): 16.3 µM
- GI50 (IGROV1 ovarian): 11.9 µM
- TGI (IGROV1 ovarian): 25 µM
- GI50 (HCT-116 colon): 1.86 µM
- TGI (HCT-116 colon): 3.71 µM
- GI50 (786-0 renal): 12.7 µM
- TGI (786-0 renal): 26 µM
- GI50 (SK-MEL-2 melanoma): 10.3 µM
- TGI (SK-MEL-2 melanoma): 23.5 µM
- GI50 (SF-539 CNS): 1.67 µM
- TGI (SF-539 CNS): 3.08 µM
- GI50 (ACHN renal): 3.03 µM
- TGI (ACHN renal): 11.9 µM
- GI50 (OVCAR-4 ovarian): 2.17 µM
- TGI (OVCAR-4 ovarian): 5.41 µM
- GI50 (MDA-MB-231 breast): 2.06 µM
- TGI (MDA-MB-231 breast): 4.64 µM
- GI50 (PC-3 prostate): 2.42 µM
- TGI (PC-3 prostate): 7.01 µM
- GI50 (MOLT-4 leukemia): 3.65 µM
- TGI (MOLT-4 leukemia): 15.8 µM
- GI50 (OVCAR-3 ovarian): 1.85 µM
- TGI (OVCAR-3 ovarian): 4.14 µM
- GI50 (DU-145 prostate): 3.57 µM
- TGI (DU-145 prostate): 14 µM
- GI50 (SK-MEL-5 melanoma): 2.61 µM
- TGI (SK-MEL-5 melanoma): 10.6 µM
- GI50 (TK-10 renal): 10.5 µM
- TGI (TK-10 renal): 23.7 µM
- GI50 (CCRF-CEM leukemia): 3.54 µM
- TGI (CCRF-CEM leukemia): 17.4 µM
- GI50 (HOP-92 NSCLC): 1.94 µM
- TGI (HOP-92 NSCLC): 6.3 µM
- GI50 (NCI-H460 lung): 2.17 µM
- TGI (NCI-H460 lung): 4.87 µM
- GI50 (U251 CNS): 2.86 µM
- TGI (U251 CNS): 9.2 µM
- GI50 (EKVX NSCLC): 3.67 µM
- TGI (EKVX NSCLC): 15.5 µM
- GI50 (NCI-H522 lung): 4.68 µM
- TGI (NCI-H522 lung): 19.5 µM
